Data published in article PMC9730820, “Near-infrared-dye labeled tumor vascular-targeted dimer GEBP11 peptide for image-guided surgery in gastric cancer” (Frontiers in Oncology, 2022).
Where a SMILES comes first, the peptide text is derived from it. Bridges are numbered along the chain shown (N, C = ends). [ ]: non-standard residue; d: D form. The star is where a group is joined. X1 = CC[N+]1=C(C=CC=CC=C2N(CCCCCC(=O)*)c3ccc4c(S(=O)(=O)O)cc(S(=O)(=O)O)cc4c3C2(C)C)C(C)(C)c2c1ccc1c(S(=O)(=O)O)cc(S(=O)(=O)[O-])cc21; Ahx = NCCCCCC(=O)O

What was measured:
[1] = tested on: Co-HUVECs (HUVECs co-cultured with SGC7901 cells); test: In vitro binding of Cy5.5 labeled GEBP11 probes, confocal fluorescence, with competitive inhibition by unlabeled GEBP11; type: cell-based, human; settings: 1μM probe, 6h, 37°C
Protocol: (§1) SGC7901 cells and HUVECs were cocultured as previously described ([18]). Co- HUVECs (co-cultured HUVECs), HUVECs and SGC7901 cells were harvested at log-growth phase and characterized by bench top fluorescent microscopy. Cells were incubated with 1μM GEBP11-Cy5.5 or (GEBP11)2-ACP-Cy5.5 for 6h at 37°C in a humidified atmosphere with 5% CO2. Binding affinity of the probes to cultured cells were detected by laser scanning confocal microscope (FV3000, Olympus, Japan). Nucleus were re-stained with ProLong™ Gold Antifade Mountant with DAPI (Invitrogen, USA) at room temperature. For binding specificity assessment, cells were pretreated with 25μM unlabeled GEBP11 for 30min at 37°C before incubating with the labeled probes.

[2] = tested on: HUVECs; test: In vitro binding of Cy5.5 labeled GEBP11 probes, confocal fluorescence; type: cell-based, human; settings: 1μM probe, 6h, 37°C, laser scanning confocal microscope
Protocol: as §1

[3] = tested on: SGC7901 cells; test: as above; type: cell-based, human; settings: 1μM probe, 6h, 37°C, laser scanning confocal microscope
Protocol: as §1

[4] = tested on: SGC7901 subcutaneous xenograft; test: Live NIR fluorescence imaging in subcutaneous gastric cancer xenograft model; type: in vivo, athymic nude mice
Excerpt: All mice were fed irradiated alfalfa-free rodent diet (Envigo Teklad, Madison, WI) to reduce background in stomach and gut for one week prior to the imaging experiments. The mice models were used for in vivo imaging and surgical procedures when xenograft diameter reached 5 to 10 mm.

[5] = Ex vivo biodistribution of NIR signal in tumor and main organs; parameters: species or system athymic nude mice; settings: mouse, in vivo, iv, 200 ul of 5 uM probe in PBS per mouse; ex vivo NIR signal, kidney relative to muscle, 24 h post-injection, n=3, bar label of Figure 3C
Protocol: (§2) Subcutaneous tumor xenograft models were used to detect the biodistribution of NIR signals. Mice were euthanized at 24h after injection of the labeled probes or free Cy5.5. All assays were done in triplicates. Then tumor xenografts and main organs (heart, lung, kidney, bone, muscle, brain, spleen, liver, skin and intestines) were harvested. Living Image version 4.7.3 Software (IVIS) was used to quantify the NIR fluorescence intensity at selected ROIs. All ROI data were collected after subtracting background autofluorescence. Differences in the fluorescence intensities of the ROIs between different probes were statistically analyzed.

[6] = tested on: SGC7901 subcutaneous xenograft; test: as above; parameters: species or system athymic nude mice; settings: tumors and major organs harvested at 24h after injection
Protocol: as §2

[7] = tested on: SGC7901-Luc orthotopic gastric cancer xenograft; test: Live NIR fluorescence imaging in orthotopic gastric cancer xenograft model
Protocol: All animal experiments were conducted in compliance with protocols approved by the Institute of Animal Use Committee of Air Force Medical University. All gastric cancer xenograft models were established in 6–8 week old female athymic nude mice. The SGC7901-Luc or SGC7901-GFP cell suspension at a concentration of 2 × 10^6 cells/mL was prepared. For subcutaneous xenograft model, SGC7901-GFP cells suspension (100μL/mouse) were injected subcutaneously into the right upper limb (for in vivo binding affinity test) or lower flank of mouse (for in vivo biodistribution assay). The orthotopic gastric cancer xenograft models were established as described previously ([21]), In brief, open abdominal surgery was performed on the mice under general anesthesia, SGC7901-Luc cells suspension (100μL/mouse) were injected into the subserosa layer of the stomach.
Tumor growth was monitored by Caliper IVIS Lumina II (PerkinElmer, MA, USA). GFP fluorescence imaging was performed in subcutaneous xenograft model. Bioluminescence imaging (BLI) was performed to monitor tumor growth in the orthotopic xenograft models. Because of its higher penetrability and sensitivity, peritoneal metastasis can be visualized clearly as well. Before BLI was acquired, mice were injected with D-luciferin (150 mg/kg) by intraperitoneal injection and anesthetized with 2% isoflurane. Living Image software 4.7.3 (IVIS) was used to quantify bioluminescence signals.
Xenograft mice were injected with 200 ul GEBP11-Cy5.5, (GEBP11)2-ACP-Cy5.5 or free Cy5.5 (5 µM in PBS) via tail veins. Live NIR fluorescence imaging was performed at different time points. NIR Fluorescence intensity was quantified by region-of-interest (ROI) measurement using Living Image software 4.7.3 (IVIS).

[8] = tested on: SGC7901-Luc orthotopic gastric cancer xenograft; test: Real-time NIR fluorescence imaging-guided resection; type: in vivo, athymic nude mice; settings: surgery 24h after probe injection, checked by BLI
Protocol: Orthotopic gastric cancer xenograft mice were anesthetized with a ketamine/xylazine mixture via intraperitoneal injection 24h after injection of (GEBP11)2-ACP-Cy5.5 probe. Real-time NIR fluorescence imaging was used to guide the removal of the primary cancer lesion and potential metastatic lesions. After resection, all surgical specimens and surgical beds were examined by NIR fluorescence imaging to confirm complete resection. To compare the efficacy of the dimer GEBP11 NIR imaging, BLI imaging pictures were taken before and after resection, the findings of BLI imaging were kept blind to the researcher who performed the surgery.

[9] = tested on: tumor vascular epithelial cells (CD31); test: Fluorescence microscopy co-localisation of probe with CD31 in resected tumor sections; settings: frozen sections of resected samples, FITC-labeled anti-mouse CD31, confocal fluorescence microscopic examination
Protocol: Resected samples were embedded in optimum cutting temperature (OCT) compound (Leica, Germany), and 10μm-thick frozen tissue sections were cut on a cryostat microtome (Leica, Germany). The sections were fixed immediately with precooled isoacetone for 30min and stored at –20 °C. Hematoxylin and Eosin (H&E) staining was used for histological analysis. Tumor margins defined by H&E staining and NIR fluorescence were compared. All slides were scanned by using Pannoramic-250 Flash II slide-scanner (3D-Histech, Budapest, Hungary) and analyzed by Case viewer software (3D-Histech, Budapest, Hungary). Mouse tumor vascular endothelial cells were stained by FITC-labeled rat anti-mouse CD31 (89C2) antibody (CST, Boston, USA). Fluorescence microscopy was used to validate the colocalization of (GEBP11)2-ACP-Cy5.5 probe and tumor microvessel. Fluorescence microscopic images were acquired at 100x magnification by using Echo Revolve upside-down integrated fluorescence microscope (ECHO, USA).

Course of signal intensity at the tumor site ([7]; 200 ul of 5 µM via tail vein) | Structure (SMILES) | Signal intensity compared with the mono probe ([1]; confocal microscope) | Fluorescence signal on Co-HUVECs after incubation with probe ([1]; laser scanning confocal microscope) | Fluorescence signal on HUVECs after incubation with probe [2] | Fluorescence signal on SGC7901 after incubation with probe [3] | Time at which NIR fluorescence signal at the tumor site peaked ([4]; 200 ul of 5 µM probe in PBS via tail vein, observed 0-96 h, IVIS ROI) [h] | tissue to tissue ratio at 24 h [5] | Distribution of the NIR probe in tumor and organs, ex vivo fluorescence imaging [6] | Time at which signal intensity at the tumor site peaked ([7]; 200 ul of 5 µM probe via tail vein, IVIS ROI) [h] | NIR fluorescence signal at the tumor sites at 6h compared with GEBP11-Cy5.5 or free Cy5.5 ([7]; 6h after injection) | Residual cancer lesion after NIR-guided resection [8] | Co-localisation of probe fluorescence with CD31 [9] | NIR signal at the tumor sites and site of accumulation, live imaging ([4]; 200 ul of 5 µM in PBS via tail vein)
– | CC[N+]1=C(C=CC=CC=C2N(CCCCCC(=O)N[C@H]3CSSC[C@@H](C(=O)NCCCCCC(=O)N[C@H]4CSSC[C@@H](C(=O)O)NC(=O)[C@H](CCSC)NC(=O)[C@H](CC(C)C)NC(=O)[C@H](Cc5ccc(O)cc5)NC(=O)[C@H](CO)NC(=O)[C@H](CC(N)=O)NC(=O)[C@H](CCCCN)NC(=O)[C@H]([C@@H](C)O)NC4=O)NC(=O)[C@H](CCSC)NC(=O)[C@H](CC(C)C)NC(=O)[C@H](Cc4ccc(O)cc4)NC(=O)[C@H](CO)NC(=O)[C@H](CC(N)=O)NC(=O)[C@H](CCCCN)NC(=O)[C@H]([C@@H](C)O)NC3=O)c3ccc4c(S(=O)(=O)O)cc(S(=O)(=O)O)cc4c3C2(C)C)C(C)(C)c2c1ccc1c(S(=O)(=O)O)cc(S(=O)(=O)[O-])cc21 [(GEBP11)2-ACP-Cy5.5] (X1-CTKNSYLMC[Ahx]CTKNSYLMC-OH; disulfide 1-9, 11-19; N-terminus and C-terminus assumed) | much higher signal intensity than GEBP11-Cy5.5 | strong fluorescence signal | only scarce signal | only scarce signal | 24 | 1.41 | Significant enrichment | 24 | stronger NIR fluorescence signal | No residual cancer lesion could be detected | co-localize with CD31 | –
dropped rapidly after 6h | CCN1\C(=C/C=C/C=C/C2=[N+](CCCCCC(=O)O)c3ccc4c(S(=O)(=O)O)cc(S(=O)(=O)O)cc4c3C2(C)C)C(C)(C)c2c1ccc1c(S(=O)(=O)[O-])cc(S(=O)(=O)O)cc21 [Free Cy5.5, Cy5.5, reference compound] | – | – | – | – | – | – | found in the kidney, without enrichment in the tumor | – | – | – | – | accumulated mainly in the kidneys, and no significant signal was detected at the tumor sites
